{
  "source": "patent US20080069785A1",
  "about": "“PEST-CONTROL COMPOSITIONS, AND METHODS AND PRODUCTS UTILIZING SAME” (priority 2004, published 2008)",
  "system": "Horn fly (Haematobia irritans)",
  "test": "Treatment of livestock, control of flying insects (Example 23)",
  "format": "in vivo",
  "experimental": "The objective of this test was to evaluate the efficacy of the formulations in repelling flying insects from landing on and disturbing livestock. Ten animals were utilized for each treatment or control, with 120 cc/animal applied for each treatment. The experiment was performed by diluting the formulation to the appropriate concentration and spraying the formulation onto the livestock directly. One group had Ivermectin applied as a standard for comparison. Each group of animals was separated in the pasture by fencing. Counts were made immediately before treatments and then 1 day after treatment and 1 week after treatment. Every 2 weeks there was a retreatment and counts were repeated just prior to retreatment with same count cycle recurring through 2 week periods.\nThe flying insect evaluated was the Horn fly (Haematobia irritans).",
  "data": [
    {"substance": "Ivermectin", "values": [
      {"measurement": "Average number of flies landing on the animals", "setting": "2-Aug, one day after treatment on August 1 (including Ivermectin group)", "result": 4.8},
      {"measurement": "Average number of flies landing on the animals", "setting": "6-Jul, one day after the initial treatment, 120 cc/animal, ten animals", "result": 2.4},
      {"measurement": "Average number of flies landing on the animals", "setting": "8-Aug, one week after treatment on August 1", "result": 62.0},
      {"measurement": "Average number of flies landing on the animals", "setting": "11-Jul, one week after initial treatment", "result": 2.7},
      {"measurement": "Average number of flies landing on the animals", "setting": "18-Jul, two weeks after initial treatment", "result": 41.4},
      {"measurement": "Average number of flies landing on the animals", "setting": "20-Jul, one day after retreatment on July 19 (except ivermectin)", "result": 54.5},
      {"measurement": "Average number of flies landing on the animals", "setting": "25-Jul, one week after retreatment on July 19 (except ivermectin)", "result": 82.7},
      {"measurement": "Average number of flies landing on the animals", "setting": "31-Jul, two weeks after retreatment on July 19 (except ivermectin)", "result": 185.9}
    ]}
  ]
}
